Measured values as given in US20230096978A1, “MOR RECEPTOR AGONIST COMPOUND, PREPARATION METHOD THEREFOR, AND USE THEREOF” (CHENGDU EASTON BIOPHARMACEUTICALS CO., LTD., priority 2020, published 2023).
Several values for one entry are separate records, joined by “and”; a condition that tells them apart may be missing. Equal values may be shown once. Read-outs that look alike come from different tables or passages of the source.

Experiments:
[1] = biological target: T1, MOR (Mu opioid Receptor) (Homo sapiens, UniProt P35372); assay: cAMP agonistic activity assay, MOR stably transfected cell line; type: cell-based; settings: for EC50 against μ receptor relative to that of TRV130: ratio of EC50 to TRV130
T1 construct: expressed in transfected cells
Experimental: (§1) 1. Test purpose: to detect the agonistic activity of compound samples utilizing MOR (Mu opioid Receptor), KOR(Kappa opioid receptor), and DOR (Delta Opioid Receptor) stably transfected cell lines and using the established cAMP assay detection platform.
(§2) a. All samples were dissolved with DMSO to a storage concentration of 30 mM.
(§3) b. A sample dilution sequence was prepared on a 384-well LDV plate. The first concentration point is 6 mM, with a 3.162-fold serial dilution and a total of 11 concentration points.
(§4) c. The sample dilution sequence was transferred to an test plate (Corning-3824) using the Echo machine, corresponding to transfer of 50 nL per well.
(§5) d. 50 nL of HPE or ZPE was transferred to the corresponding location of the test plate using the Echo machine.
(§6) 2.2 Test operation of cAMP agonistic activity detection
(§7) a. Assay buffer and stimulation buffer (STB) required for the test were formulated.
(§8) b. 5 μL of STB was firstly added to each well of the test plate (with 50 nL of compound already in the well), and then 5 μL of cell suspension was added thereto.
(§9) c. The test plate was incubated in a constant temperature incubator at 37° C.
(§10) d. A standard concentration curve of cAMP was created. The first concentration point was 2848 nM, with a 4-fold serial dilution and a total of 16 detection concentrations, and each concentration point was in triplicate.
(§11) e. cAMP detection reagent (Cisbio #62AM4PEJ) was added to the sample test plate and cAMP standard concentration test plate. 5 μL of D2 reagent was added first, and then 5 μL of Cryptate reagent was added.
(§12) f. The test plates were read on the Envision after being left for 60 minutes at room temperature.

[2] = biological target: T2, KOR(Kappa opioid receptor) (Homo sapiens, UniProt P41145); assay: cAMP agonistic activity assay, KOR stably transfected cell line; type: cell-based
T2 construct: expressed in transfected cells
Experimental: as §1, §2, §3, §4, §5, §6, §7, §8, §9, §10, §11, §12

[3] = biological target: T3, DOR (Delta Opioid Receptor) (Homo sapiens, UniProt P41143); assay: cAMP agonistic activity assay, DOR stably transfected cell line; type: cell-based
T3 construct: expressed in transfected cells
Experimental: as §1, §2, §3, §4, §5, §6, §7, §8, §9, §10, §11, §12

[4] = system: thermal radiation tail-flick pain threshold in rats; assay: Rat thermal radiation tail-flick pain threshold test; type: in vivo, SD rats; settings: 0.7 mg/kg tail vein injection, Mean ± SEM; for Maximum percentage of analgesia (MPE) 0.5 h: 0.5 h after administration, n = 10; for Maximum percentage of analgesia (MPE) 1 h: 1 h after administration; for Maximum percentage of analgesia (MPE) 2 h: 2 h after administration; for Maximum percentage of analgesia (MPE) 3 h: 3 h after administration
Experimental: 1. Test purpose: to measure the effect of each compound sample on the pain threshold of rats by using the rat thermal radiation tail flick method.
Administered via tail vein injection at an equal dose of 0.7 mg/kg;
The rats (SD rats, SPF grade, with body weight of 220-250g, purchased from Beijing Vital River Laboratory Animal Technology Co., Ltd.) were firstly fixed in a special plastic cylinder, so that their tails were exposed and drooped naturally. Test was performed after the animals were quiet. […] The measured time interval was the tail-flick response latency, which is 3 s to 5 s in normal rats, and those with greater than 5 s or less than 3 s were excluded. Then, measurement was made every 5 min, and the mean of three measurements was taken as the basic nociceptive threshold. If the animal stayed more than 10 s under analgesic effect, the irradiation was stopped and 10 s was used as the upper limit of the tail flick latency to avoid burning the skin by the too-long irradiation. After the rats were given a certain dose of the drug, the pain thresholds of the rats were measured at different times.
After the rats were given a certain dose of the drug, the pain threshold of the rats was measured at 0.5 h, 1 h, 2 h, and 3 h. The maximum percentage of analgesia (% MPE) after administration was calculated, of which the calculation formula was as follows: MPE(%)=(pain threshold after administration−pain threshold before administration)/(10s−pain threshold before administration))×100%

[5] = Pharmacokinetic test after single tail vein injection; type: in vivo; settings: SD (Sprague-Dawley), rat, plasma, iv; SD rats, single tail vein injection 2 mg/kg, n = 3
Experimental: 1. Test purpose: to investigate the pharmacokinetic parameters of each compound in the Experimental Example after a single tail vein administration.
Administered via tail vein at an equal dose of 2 mg/kg;
Blood was collected from the jugular vein before administration and 5 min, 10 min, 15 min, 20 min, 30 min, 45 min, 1h, 2h, 4h, 6h, 8h, 24 h after administration. 200 μL of whole blood was taken at each time point and was placed in an anticoagulation tube containing EDTA-K2, and centrifuged at 2000g at a low temperature of 4° C. to separate the plasma. The plasma was transferred to a microcentrifuge tube, and stored in a −80° C. refrigerator for later use.
By establishing a reliable LC/MS/MS analysis method, the blood concentration of each sample was detected, and the pharmacokinetic parameters of each compound were calculated.

[6] = system: colonic motility (glass bead expulsion) in mice; assay: Mouse colonic glass bead expulsion time test; type: in vivo; settings: C57BL/6 mice, 1 mg/kg single tail vein injection, n = 10; for Mean Expulsion Time: beads inserted 20 min after administration, limit 120 min, Mean ± S.E.M.; for Expulsion Time Prolonging Rate (ETPR): relative to solvent control
Experimental: 1. Test purpose: to test the effect of the test compound on the expulsion time of colonic glass beads from mice, and to preliminarily investigate its inhibitory effect on colonic motility.
Administered via tail vein injection at an equal dose of 1 mg/kg;
After 6-7 days of adaptive feeding of C57BL/6 mice, the animals fasted with free access to water for 12-16 hours and then randomly divided into 10 groups, 10 mice per group. Each group employed a single administration via tail vein, and the administration volume was 10 mL/kg. The solvent control group was given a vehicle (normal saline) via tail vein. 20 min after the administration, glass beads preheated to 37° C. with a diameter of 2 mm were pushed into the rectum at a distance of 2 cm through the anus. Timing was immediately started and the animals were placed individually in the observation cage to observe the time for the glass beads to be expulsed (the observation time limit was 120 min). If the glass beads had not been expulsed by the end of the observation period, the animals were euthanized and the rectum was dissected to confirm that the glass beads were still in the intestinal tract.
Colonic Expulsion Rate (CER)=number of animals that successfully expulsed glass beads during the observation period/total number of animals in this group×100%;
Expulsion Time Prolonging Rate (ETPR)=(mean expulsion time of test sample group—mean expulsion time of solvent control group)/mean expulsion time of solvent control group×100%;
Percent Maximum Possible Effect (% Maximum Possible Effect, Percent MPE)=(mean expulsion time of test sample group—mean expulsion time of solvent control group)/(120-mean expulsion time of solvent control group)×100%; Calculation and related statistical processing were performed on the test data using Microsoft Office Excel 2007 and GraphPad Prism software. Unless otherwise specified, the data were shown as mean±standard error (Mean±S.E.M.), and the comparison between groups was performed by one-way ANOVA, and the Dunnett's method was used for pairwise comparison test.

[7] = agonistic effect, cAMP assay, μ opioid receptor, read-out: EC50 μ
[8] = agonistic effect, cAMP assay, κ opioid receptor, read-out: EC50 κ
[9] = agonistic effect, cAMP assay, δ opioid receptor, read-out: EC50 δ
[10] = n = 10, listed as positive compound, 0.7 mg/kg

T2 sequence (P41145 whole entry): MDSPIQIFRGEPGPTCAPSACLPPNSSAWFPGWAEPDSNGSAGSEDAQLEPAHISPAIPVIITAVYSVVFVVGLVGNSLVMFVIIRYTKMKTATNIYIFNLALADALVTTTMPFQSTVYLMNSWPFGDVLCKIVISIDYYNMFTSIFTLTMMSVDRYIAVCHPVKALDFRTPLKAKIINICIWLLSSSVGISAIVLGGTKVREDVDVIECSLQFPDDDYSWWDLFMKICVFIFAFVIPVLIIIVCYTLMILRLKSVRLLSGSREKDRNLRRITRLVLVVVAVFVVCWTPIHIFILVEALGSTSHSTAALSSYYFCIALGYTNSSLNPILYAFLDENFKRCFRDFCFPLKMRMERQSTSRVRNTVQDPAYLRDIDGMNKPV
T3 sequence (P41143 whole entry): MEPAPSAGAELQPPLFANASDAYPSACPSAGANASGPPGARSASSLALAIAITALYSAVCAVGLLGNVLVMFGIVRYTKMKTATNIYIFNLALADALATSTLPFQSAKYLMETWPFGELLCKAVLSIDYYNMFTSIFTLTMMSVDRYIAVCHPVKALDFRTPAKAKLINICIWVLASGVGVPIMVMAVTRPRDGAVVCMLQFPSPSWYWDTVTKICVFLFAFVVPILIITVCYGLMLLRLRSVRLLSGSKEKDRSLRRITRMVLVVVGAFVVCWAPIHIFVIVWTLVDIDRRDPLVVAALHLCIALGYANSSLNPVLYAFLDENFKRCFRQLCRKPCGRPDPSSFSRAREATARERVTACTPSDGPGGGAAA
T1 sequence (P35372 whole entry, species assumed): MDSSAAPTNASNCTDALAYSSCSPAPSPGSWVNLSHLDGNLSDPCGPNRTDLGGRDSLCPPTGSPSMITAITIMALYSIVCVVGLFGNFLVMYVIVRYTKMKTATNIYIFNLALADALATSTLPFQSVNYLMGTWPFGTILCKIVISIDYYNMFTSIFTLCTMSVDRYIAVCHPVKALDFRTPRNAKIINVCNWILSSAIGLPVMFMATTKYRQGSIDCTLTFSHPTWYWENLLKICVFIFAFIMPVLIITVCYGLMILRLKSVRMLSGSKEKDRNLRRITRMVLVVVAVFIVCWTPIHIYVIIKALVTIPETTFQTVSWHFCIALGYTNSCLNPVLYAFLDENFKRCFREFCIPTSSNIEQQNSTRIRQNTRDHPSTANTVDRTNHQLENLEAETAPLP

Row | SMILES | EC50 [1] | EC50 against μ receptor relative to that of TRV130 [1] | EC50 [2] | EC50 [3] | Maximum percentage of analgesia (MPE) 0.5 h [4] | Maximum percentage of analgesia (MPE) 1 h ([4]; n = 10, 0.7 mg/kg) | Maximum percentage of analgesia (MPE) 2 h ([4]; n = 10, 0.7 mg/kg) | Maximum percentage of analgesia (MPE) 3 h ([4]; n = 10, 0.7 mg/kg) | AUC(0-t) [5] | Cmax [5] | Tmax [5] | half-life [5] | Mean Expulsion Time [6] | Percent Maximum Possible Effect (Percent MPE) [6] | Expulsion Time Prolonging Rate (ETPR) [6] | EC50 [1, 7] | EC50 [2, 8] | EC50 [3, 9] | further results
1 | COc1ccc2occ(CNCC[C@@]3(c4ccccn4)CCOC4(CCCC4)C3)c2c1 [Example 1] | 0.00021 µM | about 1/10 | 51.4 µM | 65.3 µM | 100.00% | 89.95±7.06% and 89.95% | 86.51±10.06% and 86.51% | 65.91±5.76% and 65.91% | 585 ± 25.9 ng·h/mL | 601 ± 32.5 ng/mL | 6.6 ± 3 min | 190.2 ± 1.2 min | 17.40 ± 5.84^※※♦♦ min | 11.55% | 333.92% |  |  |  | 
2 | c1ccc([C@]2(CCNCc3coc4ccccc34)CCOC3(CCCC3)C2)nc1 [Example 2] | 0.0029 µM | the same order of magnitude | 39.8 µM | 22.2 µM | 100.00% | 82.81±9.77% and 82.81% | 79.23±10.51% and 79.23% | 55.50±6.85% and 55.50% | 379 ± 63.1 ng·h/mL | 309 ± 43 ng/mL | 9 ± 0.6 min | 137 ± 7.8 min | 25.85 ± 5.88^※※♦ min | 18.83% | 544.64% |  |  |  | EC50 against κ receptor relative to that of TRV130 ([2]; ratio of EC50 to TRV130): about 7 times; EC50 against δ receptor relative to that of TRV130 ([3]; ratio of EC50 to TRV130): about 7 times
3 | c1ccc([C@]2(CCNCc3coc4ccc(O[C@@H]5CCOC5)cc34)CCOC3(CCCC3)C2)nc1 [Example 3] |  | about 1/10 |  |  | 100.00% | 86.89±7.34% and 86.89% | 82.95±8.69% and 82.95% | 61.46±8.58% and 61.46% | 532 ± 50.6 ng·h/mL | 543 ± 72.8 ng/mL | 9 ± 1.2 min | 177 ± 20.4 min | 18.99 ± 6.55^※※♦♦ min | 12.91% | 373.57% | 0.00056 µM | 56.8 µM | 32.5 µM | 
4 | Fc1ccc([C@]2(CCNCc3ccccc3-c3ccncc3)CCOC3(CCCC3)C2)cc1 [Example 4] |  | about 1/10 |  |  | 100.00% | 85.79±9.25% and 85.79% | 83.78±11.31% and 83.78% | 60.92±2.45% and 60.92% | 563 ± 31.8 ng·h/mL | 552 ± 48.7 ng/mL | 10.8 ± 1.8 min | 194 ± 6.6 min | 19.13 ± 3.93^※※♦♦ min | 13.04% | 377.06% | 0.0045 µM | 54.5 µM | 42.7 µM | 
5 | COc1ccsc1CNCC[C@@]1(c2ccccn2)CCOC2(CCCC2)C1 [TRV130, oliceridine, reference compound] |  |  | 5.77 µM | 3.14 µM | 100.00% | 88.69% | 70.01% | 49.32% | 319 ± 30.6 ng·h/mL | 235 ± 22.7 ng/mL | 8.4 ± 6 min | 56.4 ± 1.8 min | 37.57 ± 4.31^※※ min | 28.93% | 836.91% |  |  |  | Maximum percentage of analgesia (MPE) 1 h [4, 10]: 88.69±1.52%; Maximum percentage of analgesia (MPE) 2 h [4, 10]: 70.01±8.01%; Maximum percentage of analgesia (MPE) 3 h [4, 10]: 49.32±7.12%
